Laboratory results: PubChem BioAssay (NCI)
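In this assay, cells in 96-well plates receive the compound at five concentrations for 48 hours. Endpoints are linearly interpolated between the surrounding concentrations. GI50: concentration for 50% inhibition of growth. TGI marks complete inhibition of growth.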

How the values were obtained:
Assay in all cases: NCI-60 cell line screen, 48 h
[1] = test system: OVCAR-5 ovarian
[2] = test system: SK-MEL-28 melanoma
[3] = test system: OVCAR-3 ovarian
[4] = test system: K-562 leukemia
[5] = test system: SN12C renal
[6] = test system: SF-295 CNS
[7] = test system: MALME-3M melanoma
[8] = test system: KM12 colon
[9] = test system: HCT-116 colon
[10] = test system: LOX IMVI melanoma
[11] = test system: M14 melanoma
[12] = test system: RPMI-8226 leukemia

Structure (SMILES) | GI50 [1] | TGI [1] | GI50 [2] | TGI [2] | GI50 [3] | TGI [3] | GI50 [4] | TGI [4] | GI50 [5] | TGI [5] | GI50 [6] | TGI [6] | GI50 [7] | TGI [7] | GI50 [8] | TGI [8] | TGI [9] | TGI [10] | TGI [11] | TGI [12]
Cn1cc(-c2csc(-c3cn(C)c4ccc(Br)cc34)n2)c2cnccc21 | 1.78 µM | 3.22 µM | 1.85 µM | 3.3 µM | 1.89 µM | 3.49 µM | 0.239 µM | 0.563 µM | 1.53 µM | 2.92 µM | 1.81 µM | 3.4 µM | 1.95 µM | 3.48 µM | 1.97 µM | 3.69 µM | – | – | – | –
[O-]c1c[n+](CCCC[n+]2cc([O-])on2)no1 | – | > 100 µM | – | > 100 µM | – | > 100 µM | – | > 100 µM | – | > 100 µM | – | > 100 µM | – | > 100 µM | – | > 100 µM | > 100 µM | > 100 µM | > 100 µM | > 100 µM
NC(=O)c1ccc(NS(=O)(=O)c2ccc(N)cc2)nc1 | – | > 100 µM | – | > 100 µM | – | > 100 µM | – | > 100 µM | – | > 100 µM | – | > 100 µM | – | > 100 µM | – | > 100 µM | > 100 µM | > 100 µM | > 100 µM | > 100 µM
CN(C)CC1CCCC(CN2CCCCC2)C1=O (centres undefined) | – | 46.5 µM | – | 27.6 µM | – | 17.1 µM | – | – | – | 16.8 µM | – | > 100 µM | – | 6.5 µM | – | 44.9 µM | 7.53 µM | 18.3 µM | 18.7 µM | 1.29 µM
CC(N)C(=O)OCN1C(=O)C2C3C=CC(C2C1=O)C1C2C(=O)N(COC(=O)C(C)N)C(=O)C2C31 (centres undefined) | – | > 100 µM | – | 41.4 µM | – | 91.5 µM | – | 77 µM | – | 55.8 µM | – | > 100 µM | – | – | – | 41.6 µM | 44.9 µM | 35.8 µM | 36.7 µM | 54.9 µM
Nc1nc(Cl)cc(NCCCNc2cc(Cl)nc(N)n2)n1 | – | > 100 µM | – | > 100 µM | – | > 100 µM | – | > 100 µM | – | > 100 µM | – | > 100 µM | – | > 100 µM | – | > 100 µM | > 100 µM | > 100 µM | > 100 µM | > 100 µM
C1CCC(OCc2nnn3c2CCC3)OC1 (centres undefined) | – | > 100 µM | – | > 100 µM | – | > 100 µM | – | > 100 µM | – | > 100 µM | – | > 100 µM | – | > 100 µM | – | > 100 µM | > 100 µM | > 100 µM | > 100 µM | –
C=C1C(=O)OC2/C=C(\C)C3OC3/C=C(/C(=O)OC)C(O)C(OC(=O)C3(C)OC3C)C12 (centres undefined) | – | 30.4 µM | – | 3.17 µM | – | 10 µM | – | 14.3 µM | – | 5.64 µM | – | 27 µM | – | 3.21 µM | – | 11.2 µM | 2.43 µM | 3.75 µM | 4.7 µM | –
Cc1ccccc1[P+](C)(c1ccccc1C)c1ccccc1C | – | 33.5 µM | – | 35.8 µM | – | 23.6 µM | – | – | – | 43.9 µM | – | – | – | 22.9 µM | – | – | 38.5 µM | 30.5 µM | 41.1 µM | 3.96 µM
O=c1oc2ccccc2n1P(=O)(n1c(=O)oc2ccccc21)n1c(=O)oc2ccccc21 | – | > 100 µM | – | > 100 µM | – | > 100 µM | – | > 100 µM | – | > 100 µM | – | > 100 µM | – | > 100 µM | – | > 100 µM | > 100 µM | > 100 µM | > 100 µM | –
CO[C@H]1ON=C(c2c(C)cc(C)cc2C)[C@@H]1C1(c2ccccc2)ON=C(c2c(C)cc(C)cc2C)O1 (some centres undefined) | – | > 100 µM | – | > 100 µM | – | – | – | > 100 µM | – | > 100 µM | – | > 100 µM | – | > 100 µM | – | > 100 µM | > 100 µM | > 100 µM | – | > 100 µM
c1ccc(CSC2(SCc3ccccc3)CCCC2)cc1 | – | > 10 µM | – | > 10 µM | – | > 10 µM | – | > 10 µM | – | > 10 µM | – | > 10 µM | – | > 10 µM | – | > 10 µM | > 10 µM | > 10 µM | > 10 µM | > 10 µM
CC(C)OC(=O)Nc1cccc(Cl)c1 | – | > 100 µM | – | > 100 µM | – | > 100 µM | – | > 100 µM | – | > 100 µM | – | > 100 µM | – | – | – | > 100 µM | > 100 µM | > 100 µM | > 100 µM | > 100 µM
CS/C(C#N)=C(\C#N)SC | – | > 100 µM | – | 37.7 µM | – | 4.88 µM | – | 48.4 µM | – | 34.4 µM | – | 53.8 µM | – | 30.1 µM | – | 37.7 µM | > 100 µM | > 100 µM | 6.56 µM | > 100 µM
Cc1ccc(S(=O)(=O)N2c3ccccc3[C@H]3CCc4c([nH]c5ccccc45)[C@H]32)cc1 | – | > 100 µM | – | > 100 µM | – | > 100 µM | – | > 100 µM | – | > 100 µM | – | > 100 µM | – | – | – | > 100 µM | > 100 µM | > 100 µM | > 100 µM | > 100 µM
CN1C(=O)CN2C(Cl)(Cl)C2(c2ccccc2F)c2cc([N+](=O)[O-])ccc21 (centres undefined) | – | > 100 µM | – | > 100 µM | – | > 100 µM | – | > 100 µM | – | 80.7 µM | – | > 100 µM | – | 95.8 µM | – | > 100 µM | > 100 µM | > 100 µM | > 100 µM | > 100 µM
